From ChEMBL document CHEMBL1146389, “Synthesis and evaluation of prodrugs for anti-angiogenic pyrrolylmethylidenyl oxindoles” (2007)

How the values were obtained:
HUVEC [1] = experiment: Inhibition of VEGF-stimulated angiogenesis in HUVECs; format: functional, cell-based; settings: Homo sapiens
HUVEC [2] = experiment: Inhibition of VEGF-stimulated angiogenesis in HUVECs at 1 uM relative to control; format: functional; settings: Homo sapiens

SMILES | Activity (HUVEC [1]) | inhibition at 1 µM (HUVEC [2]) [%]
Cc1cc(C)c(/C=C2\C(=O)N(Cc3ccc([N+](=O)[O-])cc3)c3ccccc32)[nH]1 | Dose-dependent effect | –
Cc1cc(C)c(/C=C2\C(=O)Nc3ccccc32)[nH]1 [SEMAXANIB] | – | 94
